PubChem BioAssay AID1963970 (Molecular Pharmacology Branch, DTP, NCI, 2024)

Tested on: 931267-113-T-J1-PDC multicell spheroid viability
Assay: Anticancer human tumor 931267-113-T-J1-PDC patient-derived colon adenocarcinoma cell line growth inhibition [PI3K]
Conditions: for IC50: curve of first compound; for viability, T/C: stronger effect = lower value; active = viability on the fitted dose curve at most 10% of control; inactive = the rest
From the text: Combinatorial screen of targeted agents with the PI3K inhibitors inavolisib, alpelisib, duvelisib, and copanlisib in multi-cell type tumor spheroids
A high-throughput screen of multi-cell type tumor spheroids was designed to identify active combinations of targeted small molecules and PI3K pathway inhibitors. Complex spheroids include a stromal component modeled by human endothelial cells (HUVEC) and fibroblasts modeled by human mesenchymal stem cells (MSCs). The concentration ranges selected for each drug and investigational agent were based upon clinically achievable concentrations if the clinical Cmax of the agent was known.
Compounds. The drugs and investigational agents: inavolisib (NSC800729), alpelisib (NSC765974), duvelisib (NSC772469), copanlisib (NSC816437), ipatasertib (NSC767898), afuresertib (NSC778305), talazoparib (NSC767125), sapanisertib (NSC764658), selumetinib (NSC741078), tovorafenib (DAY101, NSC766906), vemurafenib (NSC761431), ravoxertinib (NSC781343), sotorasib (NSC818433), MRTX1133 (NSC 836407), abemaciclib (NSC 768073), palbociclib (NSC758247), venetoclax (NSC 766270), SY5609 (NSC837396), enzalutamide (NSC755605), and darolutamide (NSC825331), were obtained from the National Cancer Institute (NCI) Developmental Therapeutics Program Chemical Repository. The FDA-approved anticancer drug set is available from the NCI Developmental Therapeutics Program. […] The stock solutions were prepared in dimethyl sulfoxide (DMSO, Sigma-Aldrich, St. Louis, MO, cat. D2650) at 800-fold the tested concentration and stored at -70 degrees C prior to their use. All drugs and investigational agents were tested over a range starting from a high concentration at or near the clinical Cmax and decreasing in half-log increments. If the clinical Cmax for an agent had not been determined, the highest concentration tested was 10 microM.
Cell Culture. All cells were maintained in an incubator at 37 degrees C and 5% CO2 with 95% humidity. The PDC lines were cultured according to standard operating procedures established by the NCI PDMR (https://pdmr.cancer.gov/sops/default.htm). All PDCs were thawed and cultured in Matrigel-coated flasks prepared with a working solution of 1X Ham's F-12 nutrient mix, without supplementation (Invitrogen, Waltham, MA, cat. 11765054), 100 U/mL penicillin-streptomycin (Invitrogen, cat. 15140122), and 2.5% Matrigel (Corning Inc., Corning, NY, cat. 354248) for the first three passages. The 354836-022-R-J1-PDC, 475296-252-R-J1-PDC, and 997726-040-R-J2-PDC lines were cultured in 6A media, which includes advanced DMEM/F-12 (Thermo Fisher Scientific, cat. 12634028), 10 mM HEPES (Thermo Fisher Scientific, cat. 15630080), 1X GlutaMAX supplement (Thermo Fisher Scientific, cat. 35050061), 0.1 mg/mL primocin (InvivoGen, San Diego, CA, cat. ant-pm-2), 10% defined fetal bovine serum, heat inactivated (HyClone Laboratories Inc., Logan, UT, cat. SH30070.03HI), 50% L-WRN conditioned media (ATCC, cat. CRL-3276), 1.25 mM N-Acetyl-L-cysteine (Sigma-Aldrich, cat. A9165), 10 mM nicotinamide (Sigma-Aldrich, cat. N0636), 1X B-27 supplement (Thermo Fisher Scientific, cat. 17504044), 1X N-2 supplement (Thermo Fisher Scientific, cat. 17502048), and 10 microM Y-27632 dihydrochloride (Tocris Bioscience, Bristol, United Kingdom, cat. 1254). The 624824-186-R-J2-PDC line was cultured in 6C/Colon 1B media, which includes all 6A media components plus 50 ng/mL human EGF recombinant protein (Thermo Fisher Scientific, cat. PHG0311). […]
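Also: viability read 7 days after compound addition.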

CC1(C)CCC(CN2CCN(c3ccc(C(=O)NS(=O)(=O)c4ccc(NCC5CCOCC5)c([N+](=O)[O-])c4)c(Oc4cnc5[nH]ccc5c4)c3)CC2)=C(c2ccc(Cl)cc2)C1 + Cc1nc(NC(=O)N2CCCC2C(N)=O)sc1-c1ccnc(C(C)(C)C(F)(F)F)c1
4.73 µM: IC50 (second compound 1 µM)
4.44 µM: IC50 (second compound 3.16 µM)
5.31 µM: IC50 (second compound 0.316 µM)
3.48 µM: IC50 (second compound 10 µM)
5.9 µM: IC50 (second compound 0.1 µM)
active: viability, T/C (second compound 1 µM, first compound 10 µM) 8.3% | viability, T/C (second compound 3.16 µM, first compound 10 µM) 8.18% | viability, T/C (second compound 10 µM, first compound 10 µM) 7.58%
6.06 µM: IC50 (second compound 0.0316 µM)
inactive: viability, T/C (second compound 0.0316 µM, first compound 0.0316 µM) 105% | viability, T/C (second compound 0.0316 µM, first compound 0.1 µM) 98.3% | viability, T/C (second compound 0.0316 µM, first compound 0.316 µM) 98% | viability, T/C (second compound 0.0316 µM, first compound 1 µM) 108% | viability, T/C (second compound 0.0316 µM, first compound 3.16 µM) 90.3% | viability, T/C (second compound 0.0316 µM, first compound 10 µM) 19% | viability, T/C (second compound 0.1 µM, first compound 0.0316 µM) 95.4% | viability, T/C (second compound 0.1 µM, first compound 0.1 µM) 94% | viability, T/C (second compound 0.1 µM, first compound 0.316 µM) 92% | viability, T/C (second compound 0.1 µM, first compound 1 µM) 102% | viability, T/C (second compound 0.1 µM, first compound 3.16 µM) 92.6% | viability, T/C (second compound 0.1 µM, first compound 10 µM) 14% | viability, T/C (second compound 0.316 µM, first compound 0.0316 µM) 91.7% | viability, T/C (second compound 0.316 µM, first compound 0.1 µM) 101% | viability, T/C (second compound 0.316 µM, first compound 0.316 µM) 98.5% | viability, T/C (second compound 0.316 µM, first compound 1 µM) 84.7% | viability, T/C (second compound 0.316 µM, first compound 3.16 µM) 80.2% | viability, T/C (second compound 0.316 µM, first compound 10 µM) 15.7% | viability, T/C (second compound 1 µM, first compound 0.0316 µM) 91.7% | viability, T/C (second compound 1 µM, first compound 0.1 µM) 78.4% | viability, T/C (second compound 1 µM, first compound 0.316 µM) 79.4% | viability, T/C (second compound 1 µM, first compound 1 µM) 88.1% | viability, T/C (second compound 1 µM, first compound 3.16 µM) 72.5% | viability, T/C (second compound 3.16 µM, first compound 0.0316 µM) 73.2% | viability, T/C (second compound 3.16 µM, first compound 0.1 µM) 72.8% | viability, T/C (second compound 3.16 µM, first compound 0.316 µM) 72.5% | viability, T/C (second compound 3.16 µM, first compound 1 µM) 70.6% | viability, T/C (second compound 3.16 µM, first compound 3.16 µM) 67.6% | viability, T/C (second compound 10 µM, first compound 0.0316 µM) 57.1% | viability, T/C (second compound 10 µM, first compound 0.1 µM) 57.9% | viability, T/C (second compound 10 µM, first compound 0.316 µM) 50.3% | viability, T/C (second compound 10 µM, first compound 1 µM) 58.1% | viability, T/C (second compound 10 µM, first compound 3.16 µM) 53.7%

Cn1cnc2c(F)c(Nc3ccc(Br)cc3Cl)c(C(=O)NOCCO)cc21 + Cc1nc(NC(=O)N2CCCC2C(N)=O)sc1-c1ccnc(C(C)(C)C(F)(F)F)c1
0.0758 µM: IC50 (second compound 0.0316 µM)
inactive: viability, T/C (second compound 0.0316 µM, first compound 0.00949 µM) 86% | viability, T/C (second compound 0.0316 µM, first compound 0.03 µM) 63.5% | viability, T/C (second compound 0.0316 µM, first compound 0.0949 µM) 47.3% | viability, T/C (second compound 0.0316 µM, first compound 0.3 µM) 32.2% | viability, T/C (second compound 0.0316 µM, first compound 0.949 µM) 18.7% | viability, T/C (second compound 0.0316 µM, first compound 3 µM) 12% | viability, T/C (second compound 0.1 µM, first compound 0.00949 µM) 85.7% | viability, T/C (second compound 0.1 µM, first compound 0.03 µM) 70.2% | viability, T/C (second compound 0.1 µM, first compound 0.0949 µM) 44.1% | viability, T/C (second compound 0.1 µM, first compound 0.3 µM) 30.1% | viability, T/C (second compound 0.1 µM, first compound 0.949 µM) 21% | viability, T/C (second compound 0.1 µM, first compound 3 µM) 10.4% | viability, T/C (second compound 0.316 µM, first compound 0.00949 µM) 74.5% | viability, T/C (second compound 0.316 µM, first compound 0.03 µM) 61.5% | viability, T/C (second compound 0.316 µM, first compound 0.0949 µM) 43.3% | viability, T/C (second compound 0.316 µM, first compound 0.3 µM) 25.9% | viability, T/C (second compound 0.316 µM, first compound 0.949 µM) 16.6% | viability, T/C (second compound 1 µM, first compound 0.00949 µM) 66.4% | viability, T/C (second compound 1 µM, first compound 0.03 µM) 60.5% | viability, T/C (second compound 1 µM, first compound 0.0949 µM) 29% | viability, T/C (second compound 1 µM, first compound 0.3 µM) 20.8% | viability, T/C (second compound 1 µM, first compound 0.949 µM) 13.8% | viability, T/C (second compound 1 µM, first compound 3 µM) 5.73% | viability, T/C (second compound 3.16 µM, first compound 0.00949 µM) 64% | viability, T/C (second compound 3.16 µM, first compound 0.03 µM) 41.6% | viability, T/C (second compound 3.16 µM, first compound 0.0949 µM) 26.7% | viability, T/C (second compound 3.16 µM, first compound 0.3 µM) 15.1% | viability, T/C (second compound 10 µM, first compound 0.00949 µM) 49.8% | viability, T/C (second compound 10 µM, first compound 0.03 µM) 33.1% | viability, T/C (second compound 10 µM, first compound 0.0949 µM) 25.5% | viability, T/C (second compound 10 µM, first compound 0.3 µM) 12.2%
0.0196 µM: IC50 (second compound 3.16 µM)
< 0.00949 µM: IC50 (second compound 10 µM)
0.0421 µM: IC50 (second compound 1 µM)
0.0616 µM: IC50 (second compound 0.316 µM)
active: viability, T/C (second compound 0.316 µM, first compound 3 µM) 8.73% | viability, T/C (second compound 3.16 µM, first compound 0.949 µM) 9.74% | viability, T/C (second compound 3.16 µM, first compound 3 µM) 5.86% | viability, T/C (second compound 10 µM, first compound 0.949 µM) 9.35% | viability, T/C (second compound 10 µM, first compound 3 µM) 3.2%
0.0806 µM: IC50 (second compound 0.1 µM)
